In patent US20060281813A1, “Methods of treating hyperproliferative cell disorders” (priority 2003, published 2006):
Values joined by “and” are separate entries in the source; they are usually repeats but may differ in a detail not shown here. Equal entries are not always repeated. Where two headings read alike, the source gives them in different places.

Assays:
[1] = tested on: retinoid receptor subtype; conditions: competition with all-trans RA; cited from earlier work
[2] = tested on: advanced head and neck cancer; assay: Example 5: patients with advanced head and neck cancer; format: in vivo, human; conditions: oral 100 mg/square meter with oral IRESSA or intravenous C-225
Description: Current systemic chemotherapy regimens are unable to prolong survival of patients with advanced head and neck cancer.

lung cancer [3] = assay: Example 6: patients with lung cancer; format: in vivo, human; conditions: oral 100 mg/square meter with oral IRESSA
lung cancer [4] = assay: Example 7: lung cancer patients with disease progression on IRESSA alone; format: in vivo, human; conditions: added to IRESSA, oral 100 mg/square meter, optionally calcitriol 0.1-1 mcg per day
[5] = tested on: breast cancer, prostate cancer or leukemia; assay: Example 4: patients with breast cancer, prostate cancer or leukemia; format: in vivo, human; conditions: oral 100 mg/square meter with oral IRESSA
[6] = tested on: non small cell lung cancer; assay: Example 2: patient with non small cell lung cancer; format: in vivo, human
Description: A patient suffering from non small cell lung cancer was treated with IRESSA® (250 mg per day) for two months. The disease progressed during the treatment and thae patient was continued on IRESSA® (250 mg per day) with daily dosage of 4-oxo-retinol (75 mg per day) for two months. The disease became stable and the patient continued taking IRESSA® (250 mg per day) for 4 more months without 4-oxo-retinol with a stale disease.

[7] = tested on: refractory/progressive lung cancer; conditions: single agent; cited from earlier work
colorectal cancer = conditions: cited from earlier work
ER+ or ER− tumor lines = conditions: cited from earlier work
[8] = tested on: cutaneous T-cell lymphoma; conditions: single patient, oral, with the VD analog calcitriol; cited from earlier work
Xenopus laevis = Xenopus laevis system; cited from earlier work
small cell lung cancer = assay: Example 8: small cell lung cancer patients with disease progression on IRESSA alone; format: in vivo, human; conditions: added to IRESSA about 250-500 mg per day; oral about 100 to 500 mg per day
[9] = cited from earlier work; for peak 1,25-dihydroxyvitamin D serum concentration: healthy volunteers
[10] = cited from earlier work
[11] = tested on: F9 embryonal mouse teratocarcinoma cells; conditions: all-trans RA-treated, differentiating F9 cells, 18 hour period; cited from earlier work
[12] = tumors capable of producing 4-oxo-retinol
[13] = tumors that don't produce 4-oxo-retinol
[14] = up to 32 mcg/day for 3 months, patients with osteopetrosis
[15] = 4 mcg per day for 4 days, postmenopausal women
[16] = up to 2.7 mcg/day for 7 to 15 days, normal volunteers

CC1=C(/C=C/C(C)=C/C=C/C(C)=C/CO)C(C)(C)CCC1O (centres unmarked) [4-hydroxy-retinol]
displacement of all-trans RA [1]: Neither compound efficiently displaced all-trans RA | survival rate versus IRESSA or C-225 alone [2]: better survival rate | tumor burden versus IRESSA alone (lung cancer [3]): reduced tumor burden | tumor burden (lung cancer [4]): reduced tumor burden | tumor burden versus IRESSA alone [5]: reduced tumor burden

COc1cc2ncnc(Nc3ccc(F)c(Cl)c3)c2cc1OCCCN1CCOCC1 [IRESSA®, gefitinib]
disease course ([6]; 250 mg per day alone for two months): progressed | disease course ([6]; 250 mg per day for 4 more months without 4-oxo-retinol): stale disease | overall rate of response [7]: 10-15%

CCc1c2c(nc3ccc(OC(=O)N4CCC(N5CCCCC5)CC4)cc13)-c1cc3c(c(=O)n1C2)COC(=O)[C@]3(O)CC [IRITONECAN®]
single-agent activity (colorectal cancer): significant single-agent activity

CC1=C(/C=C/C(C)=C/C=C/C(C)=C/C(=O)Nc2ccc(O)cc2)C(C)(C)CCC1 [N-(4-hydroxyphenyl)retinamide]
growth inhibition (ER+ or ER− tumor lines; [12]): growth inhibitory | growth inhibition (ER+ or ER− tumor lines; [13]): lack growth inhibitory effects

COc1cc(C)c(/C=C/C(C)=C/C=C/C(C)=C/C(=O)O)c(C)c1C [acitretin]
clinical response [8]: complete remission

CC1=C(/C=C/C(C)=C/C=C/C(C)=C/C(=O)O)C(C)(C)CCC1 [all-trans RA, all-trans-retinoic acid]
ED50, teratogenicity (Xenopus laevis): ~100 nM | growth inhibition (ER+ or ER− tumor lines; [12]): growth inhibitory | growth inhibition (ER+ or ER− tumor lines; [13]): lack growth inhibitory effects

C=C(c1ccc(C(=O)O)cc1)c1cc2c(cc1C)C(C)(C)CCC2(C)C [bexarotene]
disease course (small cell lung cancer): stable disease or a reduced tumor burden

C=C1/C(=C\C=C2/CCC[C@]3(C)[C@@H]([C@H](C)CCCC(C)(C)O)CC[C@@H]23)C[C@@H](O)C[C@@H]1O [calcitriol]
peak 1,25-dihydroxyvitamin D serum concentration ([9]; 2 mcg single oral dose): 0.235 nM and 0.351 nM | serum half life ([9]; in vivo): 3 to 6 h | time to peak serum concentration ([9]; in vivo): 2 h | peak 1,25-dihydroxyvitamin D serum concentration ([9]; single oral dose of 4 mcg): 0.42 nM | stable 1,25-dihydroxyvitamin D serum levels ([9]; up to 3 mcg/day for 6-12 days, normal volunteers): 0.184 to 0.235 nM | peak of stable serum levels of 1,25-dihydroxyvitamin D [9, 14]: 2.32 nM | hypercalcemia [10, 15]: no clinically significant hypercalcemia | patients with serum calcium above 10.8 [10, 15]: Four of the 27 | urinary calcium excretion [10, 15]: increased | urinary hydroxyproline excretion [10, 15]: no increase | dose tolerated without hypercalcemia ([10]; given intermittently): ≤ 0.48 µg/kg | duration of hypercalcemic effect ([10]; in vivo): 3 to 5 days | time of maximal hypercalcemic effect ([10]; in vivo): 10 h | serum calcium ([10]; single oral dose of 4 mcg, healthy volunteers): no elevation | calcium absorption and excretion [10, 16]: increased | serum calcium [10, 16]: no significant elevations | patients with elevation in serum calcium ([10]; up to 3 mcg/day for 6-12 days, low calcium diet): None of the patients | hypercalcemia [10, 14]: no hypercalcemia

CC1=C(/C=C/C(C)=C/C=C/C(C)=C/CO)C(C)(C)CCC1 [retinol, Retinol]
share of total retinol metabolized to 4-hydroxy-retinol and then 4-oxo-retinol [11]: 10-15%
